This note sets out measurements from US8530385B2, “Herbicidal formulations for combinations of dimethylamine and potassium salts of glyphosate” (Donaghys Industries Limited, priority 2007, dated 2013).

For the data set the following is noted: laboratory conditions; fully loaded with surfactant. The source says:
Dimethylamine is a flammable gas and generally provided as an aqueous solution at concentrations of about 40%. As such, it is difficult to obtain highly concentrated salts of glyphosate using only DMA solution as starting material.
In contrast to IPA, DMA has a […] flash and boiling point and supplied as 40% solution.

Consider `CNC.O=C(O)CNCP(=O)(O)O` [DMA glyphosate, dimethylamine salt of glyphosate], for which the “maximum stable fully loaded concentration of glyphosate” value was 560 gae/L.
